In this assay the test system is Adult houseflies. The assay can be described thus: Housefly knock-down test, oil solution sprayed in cubic chamber (Test Example 1). The conditions noted are these: 0.7 ml of 0.00625% oil solution sprayed into 70 cm cubic chamber; adult houseflies (5 males and 5 females); counted up to 10 minutes after spraying. Format: in vivo, houseflies (Musca domestica). As to the method:
A solution of 0.00625 part of the present compound (1) in 10 parts of dichloromethane was mixed with 89.99375 parts of deodorized kerosene to obtain a 0.00625% oil solution.
Adult houseflies (5 males and 5 females) were left in a cubic chamber (70 cm at each side). Into the chamber, 0.7 ml of 0.00625% oil solution of the present compound (1) prepared above was sprayed with a spray gun at a pressure of 8.8×10^4 Pa from a small window on the side of the chamber. Then, up to 10 minutes after spraying, the number of knocked-down insects was counted with time. From the results, a time required for knocking down 90% of the tested insects (KT90) was calculated.
In addition, the same test was carried out that 4-propargyl-2,3,5,6-tetrafluorobenzyl (1R)-trans-3-(2-methyl-1-propenyl)-2,2-dimethylcyclopropanecarboxylate represented by the formula: […]
(hereinafter, referred to as the comparative compound (A)), which is the compound described in JP-A 61-207361, was used as a comparative compound (repeated twice).

Molecules are shown by their SMILES. Where only a bound is given, the exact number is not on record here.

Consider `C#CCc1c(F)c(F)c(COC(=O)C2C(/C=C(\C#N)C(=O)OCC)C2(C)C)c(F)c1F` (stereo not shown), for which the “KT90 (time required for knocking down 90% of the tested insects)” value was 2.0 min. The same measure for `C#CCc1c(F)c(F)c(COC(=O)C2C(/C=C(\C#N)C(=O)OC)C2(C)C)c(F)c1F` (stereo not shown): 2.6 min; for `C#CCc1c(F)c(F)c(COC(=O)C2C(/C=C(\C#N)C(=O)OC(C)C)C2(C)C)c(F)c1F` (stereo not shown): 5.1 min.

As for `C#CCc1c(F)c(F)c(COC(=O)[C@@H]2[C@@H](C=C(C)C)C2(C)C)c(F)c1F` [Comparative compound (A), 4-propargyl-2,3,5,6-tetrafluorobenzyl (1R)-trans-3-(2-methyl-1-propenyl)-2,2-dimethylcyclopropanecarboxylate, reference compound], the “KT90 (time required for knocking down 90% of the tested insects)” value is greater than 10 min.

Values taken from US20090143465A1 (SUMITOMO CHEMICAL COMPANY, LIMITED, priority 2006, published 2009).
